Experimental data taken from ChEMBL document CHEMBL4004849, “Tetrazolylmethyl quinolines: Design, docking studies, synthesis, anticancer and antifungal analyses” (2017).
Values after ≈ are worked out from the molar mass of the structure shown. Active and inactive are the calls of the source. The rule behind the calls is not given here.

How the values were obtained:
Format in all cases: functional
SK-OV-3 = assay: Growth inhibition of human SKOV3 cells at 10^-5 M incubated for 48 hrs by sulforhodamine B assay relative to control
SNB-75 = assay: Growth inhibition of human SNB75 cells at 10^-5 M incubated for 48 hrs by sulforhodamine B assay relative to control
UACC-257 = assay: Growth inhibition of human UACC257 cells at 10^-5 M incubated for 48 hrs by sulforhodamine B assay relative to control
OVCAR-3 = assay: Growth inhibition of human OVCAR3 cells at 10^-5 M incubated for 48 hrs by sulforhodamine B assay relative to control
HCC 2998 = assay: Growth inhibition of human HCC2998 cells at 10^-5 M incubated for 48 hrs by sulforhodamine B assay relative to control
HL-60(TB) = assay: Growth inhibition of human HL-60(TB) cells at 10^-5 M incubated for 48 hrs by sulforhodamine B assay relative to control
EKVX = assay: Growth inhibition of human EKVX cells at 10^-5 M incubated for 48 hrs by sulforhodamine B assay relative to control
MDA-MB-435 = assay: Growth inhibition of human MDA-MB-435 cells at 10^-5 M incubated for 48 hrs by sulforhodamine B assay relative to control
SW-620 = assay: Growth inhibition of human SW620 cells at 10^-5 M incubated for 48 hrs by sulforhodamine B assay relative to control
MDA-MB-468 = assay: Growth inhibition of human MDA-MB-468 cells at 10^-5 M incubated for 48 hrs by sulforhodamine B assay relative to control
786-0 = assay: Growth inhibition of human 786-0 cells at 10^-5 M incubated for 48 hrs by sulforhodamine B assay relative to control
MDA-MB-231 = assay: Growth inhibition of human MDA-MB-231/ATCC cells at 10^-5 M incubated for 48 hrs by sulforhodamine B assay relative to control
Candida albicans [1] = assay: Antifungal activity against Candida albicans after 24 hrs by serial dilution method
SNB-19 = assay: Growth inhibition of human SNB19 cells at 10^-5 M incubated for 48 hrs by sulforhodamine B assay relative to control
IGROV-1 = assay: Growth inhibition of human IGROV1 cells at 10^-5 M incubated for 48 hrs by sulforhodamine B assay relative to control
HCT-116 = assay: Growth inhibition of human HCT116 cells at 10^-5 M incubated for 48 hrs by sulforhodamine B assay relative to control
T47D = assay: Growth inhibition of human T47D cells at 10^-5 M incubated for 48 hrs by sulforhodamine B assay relative to control
K562 = assay: Growth inhibition of human K562 cells at 10^-5 M incubated for 48 hrs by sulforhodamine B assay relative to control
TK-10 = assay: Growth inhibition of human TK10 cells at 10^-5 M incubated for 48 hrs by sulforhodamine B assay relative to control
OVCAR-8 = assay: Growth inhibition of human OVCAR8 cells at 10^-5 M incubated for 48 hrs by sulforhodamine B assay relative to control
M14 = assay: Growth inhibition of human M14 cells at 10^-5 M incubated for 48 hrs by sulforhodamine B assay relative to control
SF-295 = assay: Growth inhibition of human SF295 cells at 10^-5 M incubated for 48 hrs by sulforhodamine B assay relative to control
U-251 = assay: Growth inhibition of human U251 cells at 10^-5 M incubated for 48 hrs by sulforhodamine B assay relative to control
OVCAR-5 = assay: Growth inhibition of human OVCAR5 cells at 10^-5 M incubated for 48 hrs by sulforhodamine B assay relative to control
SN12C = assay: Growth inhibition of human SN12C cells at 10^-5 M incubated for 48 hrs by sulforhodamine B assay relative to control
Hs-578T = assay: Growth inhibition of human Hs 578T cells at 10^-5 M incubated for 48 hrs by sulforhodamine B assay relative to control
NCI-H23 = assay: Growth inhibition of human NCI-H23 cells at 10^-5 M incubated for 48 hrs by sulforhodamine B assay relative to control
SK-MEL-28 = assay: Growth inhibition of human SK-MEL-28 cells at 10^-5 M incubated for 48 hrs by sulforhodamine B assay relative to control
LOX IMVI = assay: Growth inhibition of human LOXIMVI cells at 10^-5 M incubated for 48 hrs by sulforhodamine B assay relative to control
Aspergillus fumigatus [2] = assay: Antifungal activity against Aspergillus fumigatus after 24 hrs by serial dilution method
NCI-H226 = assay: Growth inhibition of human NCI-H226 cells at 10^-5 M incubated for 48 hrs by sulforhodamine B assay relative to control
UACC-62 = assay: Growth inhibition of human UACC62 cells at 10^-5 M incubated for 48 hrs by sulforhodamine B assay relative to control
MOLT-4 = assay: Growth inhibition of human MOLT4 cells at 10^-5 M incubated for 48 hrs by sulforhodamine B assay relative to control
A549 = assay: Growth inhibition of human A549/ATCC cells at 10^-5 M incubated for 48 hrs by sulforhodamine B assay relative to control
SF-268 = assay: Growth inhibition of human SF268 cells at 10^-5 M incubated for 48 hrs by sulforhodamine B assay relative to control
UO-31 = assay: Growth inhibition of human UO31 cells at 10^-5 M incubated for 48 hrs by sulforhodamine B assay relative to control
BT-549 = assay: Growth inhibition of human BT549 cells at 10^-5 M incubated for 48 hrs by sulforhodamine B assay relative to control
SR = assay: Growth inhibition of human SR cells at 10^-5 M incubated for 48 hrs by sulforhodamine B assay relative to control
CAKI-1 = assay: Growth inhibition of human Caki1 cells at 10^-5 M incubated for 48 hrs by sulforhodamine B assay relative to control
Malme-3M = assay: Growth inhibition of human MALME-3M cells at 10^-5 M incubated for 48 hrs by sulforhodamine B assay relative to control
Candida albicans [3] = assay: Antifungal activity against Candida albicans at 100 ug/ml by disc diffusion method; conditions: read-out: IZ
NCI-H460 = assay: Growth inhibition of human NCI-H460 cells at 10^-5 M incubated for 48 hrs by sulforhodamine B assay relative to control
Aspergillus fumigatus [4] = assay: Antifungal activity against Aspergillus fumigatus at 100 ug/ml by disc diffusion method; conditions: read-out: IZ
ACHN = assay: Growth inhibition of human ACHN cells at 10^-5 M incubated for 48 hrs by sulforhodamine B assay relative to control
SF-539 = assay: Growth inhibition of human SF539 cells at 10^-5 M incubated for 48 hrs by sulforhodamine B assay relative to control

## Cc1ccc2nc(Cl)c(Cn3nnnc3Cc3ccccc3)cc2c1
SK-OV-3
  growth inhibition (GI): Active
SNB-75
  growth inhibition (GI): Active
UACC-257
  growth inhibition (GI): Active
OVCAR-3
  growth inhibition (GI): Active
HCC 2998
  growth inhibition (GI): Active
HL-60(TB)
  growth inhibition (GI): Active
EKVX
  growth inhibition (GI): Active
MDA-MB-435
  growth inhibition (GI): Active
SW-620
  growth inhibition (GI): Active
MDA-MB-468
  growth inhibition (GI): Active
786-0
  growth inhibition (GI): Active
MDA-MB-231
  growth inhibition (GI): Active
Candida albicans [1]
  MIC: 25 µg/mL (≈ 71.5 µM)
SNB-19
  growth inhibition (GI): Active
IGROV-1
  growth inhibition (GI): Active
HCT-116
  growth inhibition (GI): Active
T47D
  growth inhibition (GI): Active
K562
  growth inhibition (GI): Active
TK-10
  growth inhibition (GI): Active
OVCAR-8
  growth inhibition (GI): Active
M14
  growth inhibition (GI): Active
SF-295
  growth inhibition (GI): Active
U-251
  growth inhibition (GI): Active
OVCAR-5
  growth inhibition (GI): Active
SN12C
  growth inhibition (GI): Active
Hs-578T
  growth inhibition (GI): Active
NCI-H23
  growth inhibition (GI): Active
SK-MEL-28
  growth inhibition (GI): Active
LOX IMVI
  growth inhibition (GI): Active
Aspergillus fumigatus [2]
  MIC: 25 µg/mL (≈ 71.5 µM)
NCI-H226
  growth inhibition (GI): Active
UACC-62
  growth inhibition (GI): Active
MOLT-4
  growth inhibition (GI): Active
A549
  growth inhibition (GI): Active
SF-268
  growth inhibition (GI): Active
UO-31
  growth inhibition (GI): Active
BT-549
  growth inhibition (GI): Active
SR
  growth inhibition (GI): Active
CAKI-1
  growth inhibition (GI): Active
Malme-3M
  growth inhibition (GI): Active
Candida albicans [3]
  zone of inhibition at 100 µg/mL: 10 mm
NCI-H460
  growth inhibition (GI): Active
Aspergillus fumigatus [4]
  zone of inhibition at 100 µg/mL: 10 mm
ACHN
  growth inhibition (GI): Active
SF-539
  growth inhibition (GI): Active
